Columns and labels:
[1] = molecular target: Histone deacetylase (HDAC1 and HDAC2) (Homo sapiens, UniProt Q13547+Q92769); assay: Inhibition of HDAC1/2 in human HeLa cell nuclear extracts preincubated for 5 mins followed by substrate addition measured after 0.5 hrs by Color de Lys assay; type: cell-based
K562 = assay: cells; type: functional, cell-based; conditions: Homo sapiens, K562, 48 h
Description: Cytotoxicity against human K562 cells assessed as inhibition of cell proliferation after 48 hrs by MTT assay

A549 = assay: cells; type: functional, cell-based; conditions: Homo sapiens, A549, 48 h
Description: Cytotoxicity against human A549 cells assessed as inhibition of cell proliferation after 48 hrs by MTT assay

MDA-MB-231 = assay: Cytotoxicity against human MDA-MB-231 cells assessed as inhibition of cell proliferation after 48 hrs by MTT assay; type: functional, cell-based; conditions: MDA-MB-231, 48 h
PC-3 = assay: cells; type: functional, cell-based; conditions: Homo sapiens, PC-3, 48 h
Description: Cytotoxicity against human PC3 cells assessed as inhibition of cell proliferation after 48 hrs by MTT assay

Structure (SMILES) | IC50 [1] [nM] | other results
O=C(CCCC(=O)NCc1cc(C(=O)NCc2ccccc2)c2ccccc2n1)NO | > 1000 | 
O=C(CCCCC(=O)NCc1cc(C(=O)NCc2ccccc2)c2ccccc2n1)NO | > 1000 | 
O=C(CCCCCC(=O)NCc1cc(C(=O)NCc2ccccc2)c2ccccc2n1)NO | 399 | 
O=C(CCCCCCC(=O)NCc1cc(C(=O)NCc2ccccc2)c2ccccc2n1)NO | 780 | 
O=C(CCCCCCCC(=O)NCc1cc(C(=O)NCc2ccccc2)c2ccccc2n1)NO | > 1000 | 
O=C(CCCCCCC(=O)NCc1cc(C(=O)Nc2ccccc2)c2ccccc2n1)NO | 562 | 
CCCCNC(=O)c1cc(CNC(=O)CCCCCC(=O)NO)nc2ccccc12 | 444 | 
CCCCNC(=O)c1cc(CNC(=O)CCCCCCC(=O)NO)nc2ccccc12 | > 1000 | 
O=C(CCCCCC(=O)NCc1cc(C(=O)NCc2ccccc2)c2cc(Br)ccc2n1)NO | 343 | 
O=C(CCCCCCC(=O)NCc1cc(C(=O)NCc2ccccc2)c2cc(Br)ccc2n1)NO | > 1000 | 
O=C(CCCCCCCC(=O)NCc1cc(C(=O)NCc2ccccc2)c2cc(Br)ccc2n1)NO | > 1000 | 
O=C(CCCCCC(=O)NCc1cc(C(=O)Nc2ccccc2)c2cc(Br)ccc2n1)NO | 196 | 
O=C(CCCCCCC(=O)NCc1cc(C(=O)Nc2ccccc2)c2cc(Br)ccc2n1)NO | > 1000 | 
O=C(CCCCCC(=O)NCc1cc(C(=O)NCc2ccccc2)c2cc(-c3ccccc3)ccc2n1)NO | 341 | 

Second part, led by results:

IC50 [1] [nM] | Structure (SMILES) | other results
301 | O=C(CCCCCC(=O)NCc1cc(C(=O)Nc2ccccc2)c2ccccc2n1)NO | 
642 | CNC(=O)c1cc(CNC(=O)CCCCCC(=O)NO)nc2ccccc12 | 
> 1000 | CNC(=O)c1cc(CNC(=O)CCCCCCC(=O)NO)nc2ccccc12 | 
> 1000 | O=C(CCCC(=O)NCc1ccc2ccccc2n1)NO | 
> 1000 | O=C(CCCCC(=O)NCc1ccc2ccccc2n1)NO | 
266 | O=C(CCCCCC(=O)NCc1ccc2ccccc2n1)NO | 
678 | O=C(CCCCCCC(=O)NCc1ccc2ccccc2n1)NO | 
155 | O=C(CCCCCC(=O)NCc1ccc2cc(F)ccc2n1)NO | 
120 | O=C(CCCCCC(=O)NCc1ccc2cc(Cl)ccc2n1)NO | IC50 (K562): 3390 nM; IC50 (A549): 2710 nM; IC50 (MDA-MB-231): 1840 nM; IC50 (PC-3): 9130 nM
85 | O=C(CCCCCC(=O)NCc1ccc2cc(Br)ccc2n1)NO | IC50 (K562): 4860 nM; IC50 (A549): 3890 nM; IC50 (MDA-MB-231): 900 nM; IC50 (PC-3): 9260 nM
146 | O=C(CCCCCCC(=O)NCc1ccc2cc(Br)ccc2n1)NO | 
132 | O=C(CCCCCC(=O)NCc1ccc2cc(I)ccc2n1)NO | IC50 (K562): 2450 nM; IC50 (A549): 2580 nM; IC50 (MDA-MB-231): 1410 nM; IC50 (PC-3): 8480 nM
152 | O=C(CCCCCC(=O)NCc1ccc2cc(-c3ccccc3)ccc2n1)NO | 

Source: ChEMBL document CHEMBL3593244, “Design, synthesis and preliminary bioactivity evaluations of substituted quinoline hydroxamic acid derivatives as novel histone deacetylase (HDAC) inhibitors” (Bioorg Med Chem, 2015)
